Columns and labels:
Details in all cases: main component drawn
B. subtilis 168 [1] = assay: fitness (endpoint OD595 vs no drug) (fraction); higher = more growth
Summary of the method: (§1)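 Cultures at OD595 0.01 were dispensed into 384-well plates in TSB, LB Lennox or CY and incubated at 37 °C. Every 30 min for 14 h, OD595 was read and corrected by the first reading. Fitness is the optical density at entry into stationary phase relative to the robust mean of no-drug control wells, capped at 1.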

S. aureus Newman [2] = assay: as above
Summary of the method: as §1

S. pneumoniae D39V = assay: Bliss interaction score (quartile over a dose matrix) (fitness difference); higher = more antagonism (negative = synergy)
Summary of the method: (§2)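 Fitness here means normalised growth, inferred for single drugs from the combination data. Growth was OD595 at entry into stationary phase, divided by the plate's robust no-drug mean and capped at 1. The Bliss score is observed minus expected fitness, with the expectation being the product, and its quartiles span technical, biological and donor/recipient replicates.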

S. aureus DSM 20231 = assay: as above
Summary of the method: as §2

B. subtilis 168 [3] = assay: as above
Summary of the method: as §2

S. aureus Newman [4] = assay: as above
Summary of the method: as §2
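Wherever Bliss interaction score (quartile over a dose matrix) is given: first quartile when negative (synergy) and third quartile when positive (antagonism).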

CC[C@H](C)[C@H](N)C1=N[C@H](C(=O)N[C@@H](CC(C)C)C(=O)N[C@H](CCC(=O)O)C(=O)N[C@H](C(=O)N[C@H]2CCCCNC(=O)[C@H](CC(N)=O)NC(=O)[C@@H](CC(=O)O)NC(=O)[C@H](Cc3cnc[nH]3)NC(=O)[C@@H](Cc3ccccc3)NC(=O)[C@H]([C@@H](C)CC)NC(=O)[C@@H](CCCN)NC2=O)[C@@H](C)CC)CS1 [Bacitracin] + COc1ccc(C[C@H](N)C(=O)N[C@H]2[C@@H](O)[C@H](n3cnc4c(N(C)C)ncnc43)O[C@@H]2CO)cc1 [Puromycin]
fitness
Details | first compound 18.75 µg/mL | first compound 37.5 µg/mL | first compound 75 µg/mL | first compound 150 µg/mL
B. subtilis 168 [1], partner 0.39 µg/mL | – | 0.901 | 0.875 | 0.793
B. subtilis 168 [1], partner 0.78 µg/mL | – | 0.959 | 0.958 | –
B. subtilis 168 [1], partner 1.56 µg/mL | – | 0.903 | 0.881 | –
S. aureus Newman [2], partner 0.39 µg/mL | 0.693 | – | 0.0319 | –
S. aureus Newman [2], partner 0.78 µg/mL | 0.687 | 0.197 | 0.0272 | –
S. aureus Newman [2], partner 1.56 µg/mL | 0.685 | 0.0934 | 0.0307 | –

Details | Bliss interaction score
B. subtilis 168 [3] | 0.0815
S. aureus DSM 20231 | -0.0671
S. aureus Newman [4] | -0.0486
S. pneumoniae D39V | 0.048

CC[C@H](C)[C@H](N)C1=N[C@H](C(=O)N[C@@H](CC(C)C)C(=O)N[C@H](CCC(=O)O)C(=O)N[C@H](C(=O)N[C@H]2CCCCNC(=O)[C@H](CC(N)=O)NC(=O)[C@@H](CC(=O)O)NC(=O)[C@H](Cc3cnc[nH]3)NC(=O)[C@@H](Cc3ccccc3)NC(=O)[C@H]([C@@H](C)CC)NC(=O)[C@@H](CCCN)NC2=O)[C@@H](C)CC)CS1 [Bacitracin] + COc1cccc2c1C(=O)c1c(O)c3c(c(O)c1C2=O)C[C@@](O)(C(=O)CO)C[C@@H]3O[C@H]1C[C@H](N)[C@H](O)[C@H](C)O1 [Doxorubicin]
fitness
Details | partner 0.625 µg/mL | partner 1.25 µg/mL | partner 2.5 µg/mL
B. subtilis 168 [1], first compound 37.5 µg/mL | 0.889 | 0.851 | 0.686
B. subtilis 168 [1], first compound 75 µg/mL | 0.827 | 0.792 | –
B. subtilis 168 [1], first compound 150 µg/mL | 0.691 | 0.653 | –
S. aureus Newman [2], first compound 18.75 µg/mL | 0.607 | 0.598 | 0.513
S. aureus Newman [2], first compound 75 µg/mL | 0.0711 | 0.0343 | 0.0074

Details | Bliss interaction score
B. subtilis 168 [3] | 0.0797
S. aureus DSM 20231 | 0.115
S. aureus Newman [4] | 0.0938
S. pneumoniae D39V | -0.0704

CC[C@H](C)[C@H](N)C1=N[C@H](C(=O)N[C@@H](CC(C)C)C(=O)N[C@H](CCC(=O)O)C(=O)N[C@H](C(=O)N[C@H]2CCCCNC(=O)[C@H](CC(N)=O)NC(=O)[C@@H](CC(=O)O)NC(=O)[C@H](Cc3cnc[nH]3)NC(=O)[C@@H](Cc3ccccc3)NC(=O)[C@H]([C@@H](C)CC)NC(=O)[C@@H](CCCN)NC2=O)[C@@H](C)CC)CS1 [Bacitracin] + C[C@@H]1O[C@@H]1P(=O)(O)O [Fosfomycin]
fitness
Details | first compound 18.75 µg/mL | first compound 37.5 µg/mL | first compound 75 µg/mL | first compound 150 µg/mL
B. subtilis 168 [1], partner 1.562 µg/mL | – | 0.697 | 0.662 | 0.607
B. subtilis 168 [1], partner 3.124 µg/mL | – | 0.61 | 0.594 | 0.488
B. subtilis 168 [1], partner 6.248 µg/mL | – | 0.501 | 0.51 | 0.427
S. aureus Newman [2], partner 0.781 µg/mL | 0.507 | 0.0984 | 0.0911 | –
S. aureus Newman [2], partner 1.562 µg/mL | 0.471 | – | 0.0362 | –
S. aureus Newman [2], partner 3.124 µg/mL | 0.174 | 0.0141 | 0.0222 | –

Details | Bliss interaction score
B. subtilis 168 [3] | 0.0941
S. aureus DSM 20231 | 0.109
S. aureus Newman [4] | 0.102
S. pneumoniae D39V | -0.0469

CC[C@H](C)[C@H](N)C1=N[C@H](C(=O)N[C@@H](CC(C)C)C(=O)N[C@H](CCC(=O)O)C(=O)N[C@H](C(=O)N[C@H]2CCCCNC(=O)[C@H](CC(N)=O)NC(=O)[C@@H](CC(=O)O)NC(=O)[C@H](Cc3cnc[nH]3)NC(=O)[C@@H](Cc3ccccc3)NC(=O)[C@H]([C@@H](C)CC)NC(=O)[C@@H](CCCN)NC2=O)[C@@H](C)CC)CS1 [Bacitracin] + C[n+]1ccc(-c2cc[n+](C)cc2)cc1 [Paraquat]
fitness
Details | first compound 18.75 µg/mL | first compound 37.5 µg/mL | first compound 75 µg/mL | first compound 150 µg/mL
B. subtilis 168 [1], partner 1.25 µg/mL | – | 0.931 | 0.924 | 0.844
B. subtilis 168 [1], partner 2.5 µg/mL | – | 0.886 | 0.846 | 0.826
B. subtilis 168 [1], partner 5 µg/mL | – | 0.746 | 0.656 | –
S. aureus Newman [2], partner 1.25 µg/mL | 0.673 | 0.276 | 0.0637 | –
S. aureus Newman [2], partner 2.5 µg/mL | 0.725 | 0.315 | 0.0696 | –
S. aureus Newman [2], partner 5 µg/mL | 0.669 | 0.349 | 0.0708 | –

Details | Bliss interaction score
B. subtilis 168 [3] | 0.115
S. aureus DSM 20231 | -0.0542
S. aureus Newman [4] | 0.0836
S. pneumoniae D39V | 0.0921

CC[C@H](C)[C@H](N)C1=N[C@H](C(=O)N[C@@H](CC(C)C)C(=O)N[C@H](CCC(=O)O)C(=O)N[C@H](C(=O)N[C@H]2CCCCNC(=O)[C@H](CC(N)=O)NC(=O)[C@@H](CC(=O)O)NC(=O)[C@H](Cc3cnc[nH]3)NC(=O)[C@@H](Cc3ccccc3)NC(=O)[C@H]([C@@H](C)CC)NC(=O)[C@@H](CCCN)NC2=O)[C@@H](C)CC)CS1 [Bacitracin] + Cc1cc(NS(=O)(=O)c2ccc(N)cc2)no1 [Sulfamethoxazol]
fitness, one replicate
Details | first compound 18.75 µg/mL | first compound 37.5 µg/mL | first compound 75 µg/mL | first compound 150 µg/mL
B. subtilis 168 [1], partner 0.5 µg/mL | – | 0.947 | 0.998 | ≥ 1
S. aureus Newman [2], partner 8 µg/mL | 0.729 | 0.454 | 0.0253 | –

fitness
Details | partner 1 µg/mL | partner 2 µg/mL | partner 4 µg/mL
B. subtilis 168 [1], first compound 37.5 µg/mL | 0.856 | 0.855 | 0.941
B. subtilis 168 [1], first compound 75 µg/mL | 0.832 | 0.851 | 0.852
S. aureus Newman [2], first compound 18.75 µg/mL | 0.775 | 0.76 | 0.819
S. aureus Newman [2], first compound 75 µg/mL | 0.0141 | 0.009 | 0.0028

Details | Bliss interaction score
B. subtilis 168 [3] | 0.0966
S. aureus DSM 20231 | -0.0266
S. aureus Newman [4] | 0.104
S. pneumoniae D39V | 0.0767

CC[C@H](C)[C@H](N)C1=N[C@H](C(=O)N[C@@H](CC(C)C)C(=O)N[C@H](CCC(=O)O)C(=O)N[C@H](C(=O)N[C@H]2CCCCNC(=O)[C@H](CC(N)=O)NC(=O)[C@@H](CC(=O)O)NC(=O)[C@H](Cc3cnc[nH]3)NC(=O)[C@@H](Cc3ccccc3)NC(=O)[C@H]([C@@H](C)CC)NC(=O)[C@@H](CCCN)NC2=O)[C@@H](C)CC)CS1 [Bacitracin] + Cc1ncc([N+](=O)[O-])n1CCO [Metronidazole]
fitness
Details | partner 0.625 µg/mL | partner 0.781 µg/mL | partner 1.25 µg/mL | partner 1.562 µg/mL | partner 2.5 µg/mL | partner 3.124 µg/mL
B. subtilis 168 [1], first compound 37.5 µg/mL | 0.956 | – | 0.931 | – | 0.902 | –
B. subtilis 168 [1], first compound 75 µg/mL | 0.964 | – | 0.931 | – | 0.903 | –
B. subtilis 168 [1], first compound 150 µg/mL | – | – | – | – | 0.811 | –
S. aureus Newman [2], first compound 18.75 µg/mL | 0.741 | 0.702 | 0.757 | 0.716 | 0.743 | 0.687
S. aureus Newman [2], first compound 37.5 µg/mL | 0.308 | 0.21 | 0.243 | 0.243 | 0.181 | 0.26
S. aureus Newman [2], first compound 75 µg/mL | 0.0054 | 0.03 | 0.0112 | 0.0279 | 0.0054 | 0.0683

Details | Bliss interaction score
B. subtilis 168 [3] | 0.103
S. aureus DSM 20231 | 0.0734
S. aureus Newman [4] | 0.0714
S. pneumoniae D39V | 0.127

CC[C@H](C)[C@H](N)C1=N[C@H](C(=O)N[C@@H](CC(C)C)C(=O)N[C@H](CCC(=O)O)C(=O)N[C@H](C(=O)N[C@H]2CCCCNC(=O)[C@H](CC(N)=O)NC(=O)[C@@H](CC(=O)O)NC(=O)[C@H](Cc3cnc[nH]3)NC(=O)[C@@H](Cc3ccccc3)NC(=O)[C@H]([C@@H](C)CC)NC(=O)[C@@H](CCCN)NC2=O)[C@@H](C)CC)CS1 [Bacitracin] + Cc1onc(-c2ccccc2)c1C(=O)N[C@@H]1C(=O)N2[C@@H]1SC(C)(C)[C@@H]2C(=O)O [Oxacillin]
fitness
Details | first compound 18.75 µg/mL | first compound 37.5 µg/mL | first compound 75 µg/mL
B. subtilis 168 [1], partner 0.002 µg/mL | – | 0.958 | 0.959
B. subtilis 168 [1], partner 0.004 µg/mL | – | 0.955 | 0.913
B. subtilis 168 [1], partner 0.008 µg/mL | – | 0.924 | 0.835
S. aureus Newman [2], partner 0.0156 µg/mL | 0.534 | 0.0937 | 0.0408
S. aureus Newman [2], partner 0.0312 µg/mL | – | 0.0243 | 0.0443
S. aureus Newman [2], partner 0.0625 µg/mL | 0.0815 | 0.0177 | 0.0488

fitness, B. subtilis 168 [1], one replicate
Details | partner 0.0078 µg/mL | partner 0.0155 µg/mL | partner 0.031 µg/mL | partner 0.075 µg/mL | partner 0.15 µg/mL | partner 0.3 µg/mL
first compound 37.5 µg/mL | 0.79 | 0.782 | 0.742 | 0.58 | 0.0238 | 0.0295
first compound 75 µg/mL | 0.778 | 0.76 | 0.701 | 0.496 | 0.0193 | 0.0177
first compound 150 µg/mL | 0.447 | 0.36 | 0.316 | 0.242 | 0.0097 | 0.0106

Details | Bliss interaction score
B. subtilis 168 [3] | -0.0456
S. aureus DSM 20231 | 0.0803
S. aureus Newman [4] | -0.118
S. pneumoniae D39V | -0.107

CC[C@H](C)[C@H](N)C1=N[C@H](C(=O)N[C@@H](CC(C)C)C(=O)N[C@H](CCC(=O)O)C(=O)N[C@H](C(=O)N[C@H]2CCCCNC(=O)[C@H](CC(N)=O)NC(=O)[C@@H](CC(=O)O)NC(=O)[C@H](Cc3cnc[nH]3)NC(=O)[C@@H](Cc3ccccc3)NC(=O)[C@H]([C@@H](C)CC)NC(=O)[C@@H](CCCN)NC2=O)[C@@H](C)CC)CS1 [Bacitracin] + O=C(O)c1cn(C2CC2)c2cc(N3CCNCC3)c(F)cc2c1=O [Ciprofloxacin]
fitness
Details | first compound 18.75 µg/mL | first compound 37.5 µg/mL | first compound 75 µg/mL | first compound 150 µg/mL
B. subtilis 168 [1], partner 0.0098 µg/mL | – | 0.88 | 0.889 | 0.897
B. subtilis 168 [1], partner 0.0195 µg/mL | – | 0.718 | 0.659 | 0.559
B. subtilis 168 [1], partner 0.039 µg/mL | – | 0.201 | 0.0773 | 0.0355
S. aureus Newman [2], partner 0.0375 µg/mL | 0.524 | 0.199 | 0.0079 | –
S. aureus Newman [2], partner 0.075 µg/mL | – | 0.0916 | 0.013 | –
S. aureus Newman [2], partner 0.15 µg/mL | 0.0536 | 0.0155 | 0.0083 | –

Details | Bliss interaction score
B. subtilis 168 [3] | -0.0665
S. aureus DSM 20231 | -0.0438
S. aureus Newman [4] | -0.0418
S. pneumoniae D39V | -0.13
